# Assay results from paper PMC6944674, “Comparison of the Hepatotoxic Potential of Two Treatments for Autosomal-Dominant Polycystic Kidney DiseaseUsing Quantitative Systems Toxicology Modeling” (Pharmaceutical Research, 2020).
# “And” between values parts separate entries of the source, which are not always exact repeats. Identical values can stand only once. Like-named read-outs stand apart in the source and are kept apart here.
# Legend:
# [1] = target: T1, human BSEP (Homo sapiens, UniProt O95342); test: BSEP vesicular transport inhibition assay (taurocholate, HEK-293 cell membrane vesicles); type: biochemical
# T1 construct: host or cells: HEK-293 cell membrane vesicles
# Method: (§1) The functional impact of lixivaptan, its three metabolites and tolvaptan on the human ABC (efflux) transporters BSEP and MRP3 and MRP4 was assessed for this project using in vitro vesicular transport inhibition assays. The inhibition of the human SLC (uptake) transporter NTCP was assessed using CHO cells stably expressing human NTCP. The concentration ranges used for the five test articles was determined based on the solubility of each compound in the assay solution. All transporter inhibition assays were conducted in triplicate by Solvo Biotechnology (Szeged, Hungary).
# For the simulation of bile acid transporter inhibition by lixivaptan in DILIsym, parameter values were selected for BSEP canalicular transport, basolateral transport (encompassing both MRP3 and MRP4), and NTCP transport. The parameter values for each include the inhibition constant, defined as the IC50 or Ki value, and the inhibition type, defined as competitive, non-competitive, or mixed inhibition.
# In vesicular transport inhibition assays, lixivaptan and its metabolites each inhibited BSEP-mediated probe substrate accumulation (Figure B1) and MRP4-mediated probe substrate accumulation (Figure B2) dose-dependently.
# Figure B1. […] See Appendix A for more details.
# [2] = target: T2, human NTCP (Homo sapiens, UniProt Q14973); test: NTCP inhibition in CHO cells stably expressing human NTCP (taurocholate); type: cell-based; conditions: CHO cells
# T2 sequence (Q14973 1-349): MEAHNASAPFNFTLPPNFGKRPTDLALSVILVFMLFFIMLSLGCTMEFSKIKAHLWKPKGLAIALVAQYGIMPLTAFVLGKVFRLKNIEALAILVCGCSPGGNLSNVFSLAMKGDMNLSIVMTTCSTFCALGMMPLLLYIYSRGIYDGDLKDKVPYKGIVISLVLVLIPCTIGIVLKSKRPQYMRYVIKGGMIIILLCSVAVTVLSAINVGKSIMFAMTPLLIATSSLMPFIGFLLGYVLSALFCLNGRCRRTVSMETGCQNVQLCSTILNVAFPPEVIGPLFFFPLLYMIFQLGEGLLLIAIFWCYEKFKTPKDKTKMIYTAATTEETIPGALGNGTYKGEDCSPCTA
# Method: as §1
# Figure B4. […] See Appendix A for more details.
# [3] = target: T3, human MRP3 (Homo sapiens, UniProt O15438); test: MRP3 vesicular transport inhibition assay (E217βG, HEK-293 cell membrane vesicles); type: biochemical
# T3 construct: host or cells: HEK-293 cell membrane vesicles
# Method: as §1
# Figure B3. […] See Appendix A for more details.
# [4] = tested on: HepG2 cells; test: Seahorse XFe96 cellular respiration assay (oxygen consumption rate); type: cell-based; conditions: 24 hour incubation
# Method: To assess the potential effect of the five test articles on mitochondrial function, cellular respiration assays using a Seahorse XFe96 Flux Analyzer were conducted by Cyprotex (Macclesfield, UK) and overseen by the authors. HepG2 cells were incubated with each test article for 1 or 24 hours and tested for an effect on cellular respiration by measuring the oxygen consumption rate (OCR). Each study was conducted in triplicate. Importantly, the 1 hour culture was conducted in the absence of serum (i.e. no serum protein binding) as is standard for the Seahorse Analyzer assay conditions.
# [5] = tested on: mitochondrial electron transport chain; test: ETC inhibition parameter from MITOsym simulation of OCR data, translated to DILIsym; conditions: calculated from 24 h HepG2 OCR data and measured intracellular concentrations; lower = higher risk
# Excerpt: The parameters calculated in this manner were then translated to DILIsym parameters using a conversion factor based on the relative activity of rotenone in the in vitro vs. in vivo environment (7).
# [6] = Intracellular concentration by LC/MS/MS in HepG2 cultures parallel to Seahorse assay; type: in vitro ADME; conditions: human, HepG2 cells, Seahorse medium
# Method: (§2) The concentration of test compound at the site of action (i.e. hepatocytes) has been identified as highly influential in the selection of parameter values (7). To assess intracellular concentrations of the five test articles, identical HepG2 cultures were established in parallel and cell lysate concentrations of the test articles were measured by LC/MS/MS analysis. Intracellular concentrations of the test articles were calculated by correcting for cell lysate volume (100 µL) and the volume of HepG2 cells in each well, which was calculated by multiplying cell count per well by cellular volume per cell (2.85 pl/cell). One independent study in duplicate was conducted to assess intracellular concentrations of the test articles for Seahorse studies.
# [7] = tested on: HepG2 cells; test: as above; type: in vitro ADME; conditions: Seahorse medium; for CIntracellular Fraction: cell lysate; for CHepatocyte: corrected for lysate and HepG2 cell volume
# Method: as §2
# [8] = target: T1, human BSEP; design: method as in earlier work; conditions: ref (7); read-out: BSEP Ki used in DILIsym simulations previously; cited from earlier work
# [9] = tested on: mitochondrial electron transport chain; conditions: intracellular concentrations not measured; cited from earlier work
# [10] = tested on: simulated individuals; design: method as in PMID 27655350; conditions: 24 weeks, cited from earlier work; for Simulated ALT >3X ULN, frequency: 90/30 mg split daily dosing
# [11] = 90/30 mg, cited from earlier work
# T1 sequence (O95342 whole entry): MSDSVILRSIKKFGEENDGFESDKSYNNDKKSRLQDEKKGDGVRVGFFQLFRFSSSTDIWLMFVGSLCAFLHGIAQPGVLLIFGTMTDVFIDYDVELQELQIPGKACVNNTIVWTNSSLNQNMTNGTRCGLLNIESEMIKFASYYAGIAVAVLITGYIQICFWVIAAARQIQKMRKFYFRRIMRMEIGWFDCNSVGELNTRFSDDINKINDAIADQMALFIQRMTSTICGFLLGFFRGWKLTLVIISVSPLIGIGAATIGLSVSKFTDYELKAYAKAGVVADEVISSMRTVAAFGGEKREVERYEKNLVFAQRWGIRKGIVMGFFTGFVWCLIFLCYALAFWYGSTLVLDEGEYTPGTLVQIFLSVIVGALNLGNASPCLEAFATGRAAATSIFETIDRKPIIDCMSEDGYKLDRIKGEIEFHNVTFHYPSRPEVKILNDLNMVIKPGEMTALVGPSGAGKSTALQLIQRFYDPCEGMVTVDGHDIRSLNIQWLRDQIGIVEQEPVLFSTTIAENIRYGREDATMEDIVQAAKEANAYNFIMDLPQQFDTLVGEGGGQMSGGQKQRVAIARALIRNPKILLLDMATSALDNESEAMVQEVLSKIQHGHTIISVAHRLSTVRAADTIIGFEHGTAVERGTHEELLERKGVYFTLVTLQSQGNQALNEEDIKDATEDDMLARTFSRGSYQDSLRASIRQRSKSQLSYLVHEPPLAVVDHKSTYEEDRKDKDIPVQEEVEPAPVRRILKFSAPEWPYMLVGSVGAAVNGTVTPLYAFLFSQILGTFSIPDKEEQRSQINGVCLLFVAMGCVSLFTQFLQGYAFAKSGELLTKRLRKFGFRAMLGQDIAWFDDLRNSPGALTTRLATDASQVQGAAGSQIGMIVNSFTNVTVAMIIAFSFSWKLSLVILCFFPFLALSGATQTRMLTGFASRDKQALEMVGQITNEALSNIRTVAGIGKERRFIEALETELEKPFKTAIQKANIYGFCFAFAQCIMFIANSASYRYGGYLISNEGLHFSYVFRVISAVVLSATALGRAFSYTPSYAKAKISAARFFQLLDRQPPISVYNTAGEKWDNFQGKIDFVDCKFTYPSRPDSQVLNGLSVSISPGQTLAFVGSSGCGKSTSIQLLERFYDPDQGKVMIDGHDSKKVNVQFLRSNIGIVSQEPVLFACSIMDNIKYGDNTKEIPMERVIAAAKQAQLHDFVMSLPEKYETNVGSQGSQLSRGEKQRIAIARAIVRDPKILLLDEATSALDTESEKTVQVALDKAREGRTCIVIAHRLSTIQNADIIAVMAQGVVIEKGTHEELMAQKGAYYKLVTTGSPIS
# T3 sequence (O15438 whole entry): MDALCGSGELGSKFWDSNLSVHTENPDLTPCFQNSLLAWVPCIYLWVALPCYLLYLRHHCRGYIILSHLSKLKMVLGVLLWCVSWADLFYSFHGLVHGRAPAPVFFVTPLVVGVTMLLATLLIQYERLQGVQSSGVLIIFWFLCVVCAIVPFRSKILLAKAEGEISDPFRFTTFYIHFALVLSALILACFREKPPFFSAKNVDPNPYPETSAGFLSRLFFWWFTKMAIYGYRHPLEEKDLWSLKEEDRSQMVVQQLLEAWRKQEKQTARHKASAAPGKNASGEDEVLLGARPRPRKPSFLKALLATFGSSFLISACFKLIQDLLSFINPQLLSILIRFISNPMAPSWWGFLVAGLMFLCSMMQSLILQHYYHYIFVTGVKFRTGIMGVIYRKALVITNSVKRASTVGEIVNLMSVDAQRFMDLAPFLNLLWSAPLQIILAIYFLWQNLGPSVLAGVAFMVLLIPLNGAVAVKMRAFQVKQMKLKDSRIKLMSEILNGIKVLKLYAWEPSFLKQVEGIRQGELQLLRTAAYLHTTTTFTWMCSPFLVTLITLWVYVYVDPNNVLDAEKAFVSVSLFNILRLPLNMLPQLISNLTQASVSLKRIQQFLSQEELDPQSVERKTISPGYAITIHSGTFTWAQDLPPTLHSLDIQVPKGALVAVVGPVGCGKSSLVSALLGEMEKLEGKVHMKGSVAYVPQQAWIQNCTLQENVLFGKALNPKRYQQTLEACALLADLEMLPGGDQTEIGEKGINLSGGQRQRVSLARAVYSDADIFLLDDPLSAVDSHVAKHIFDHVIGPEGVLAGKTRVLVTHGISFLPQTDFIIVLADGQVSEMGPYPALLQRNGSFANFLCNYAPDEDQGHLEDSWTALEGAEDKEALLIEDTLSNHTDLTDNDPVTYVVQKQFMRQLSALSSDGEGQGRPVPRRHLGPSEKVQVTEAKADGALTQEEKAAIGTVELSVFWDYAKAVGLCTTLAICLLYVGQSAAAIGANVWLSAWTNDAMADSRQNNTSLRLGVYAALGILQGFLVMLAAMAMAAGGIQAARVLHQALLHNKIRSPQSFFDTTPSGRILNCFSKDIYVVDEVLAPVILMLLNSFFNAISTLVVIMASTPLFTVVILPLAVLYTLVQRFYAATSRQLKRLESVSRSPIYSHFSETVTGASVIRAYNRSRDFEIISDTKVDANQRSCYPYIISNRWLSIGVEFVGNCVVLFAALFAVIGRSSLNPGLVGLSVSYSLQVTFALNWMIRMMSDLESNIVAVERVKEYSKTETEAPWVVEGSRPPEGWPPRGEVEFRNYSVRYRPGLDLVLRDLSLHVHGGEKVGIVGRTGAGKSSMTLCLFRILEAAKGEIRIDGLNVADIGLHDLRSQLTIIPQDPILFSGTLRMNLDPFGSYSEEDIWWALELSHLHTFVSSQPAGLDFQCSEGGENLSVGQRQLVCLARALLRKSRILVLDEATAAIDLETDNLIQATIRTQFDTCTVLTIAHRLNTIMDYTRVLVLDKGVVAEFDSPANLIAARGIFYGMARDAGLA
compound,measurement,setting,value
"Cc1ccccc1C(=O)Nc1ccc(C(=O)N2CCCC(O)c3cc(Cl)ccc32)c(C)c1 (centres unmarked) [Tolvaptan, tolvaptan, reference compound]",IC50,[1]; read-out: BSEP inhibition constant (IC50),16.5 µM
same,inhibition of BSEP-mediated probe substrate accumulation,[1]; vesicular transport inhibition assay,inhibited
same,inhibition of NTCP-mediated probe substrate accumulation,[2],inhibited
same,inhibition of MRP3-mediated probe substrate accumulation,[3],inhibited
same,effect on HepG2 oxygen consumption rate (mitochondrial respiration),[4],reduce the HepG2 OCR in a dose-dependent manner
same,Coefficient for ETC inhibition (DILIsym parameter),[5],729 µM
same,Kp at 5 µM,[6]; dose 5 µM,6.44
same,Kp at 10 µM,[6]; dose 10 µM,3.44
same,Kp at 25 µM,[6]; dose 25 µM,5.97
same,Kp at 40 µM,[6]; dose 40 µM,5.7
same,CIntracellular Fraction,[7]; dose 0.1 µM,0 µM
same,CHepatocyte,[7]; dose 0.1 µM,0 µM
same,CIntracellular Fraction,[7]; dose 0.5 µM,0 µM
same,CHepatocyte,[7]; dose 0.5 µM,0 µM
same,CIntracellular Fraction,[7]; dose 1 µM,0 µM
same,CHepatocyte,[7]; dose 1 µM,0 µM
same,CIntracellular Fraction,[7]; dose 5 µM,0.0156 µM
same,CHepatocyte,[7]; dose 5 µM,32.20 µM
same,CIntracellular Fraction,[7]; dose 10 µM,0.0162 µM
same,CHepatocyte,[7]; dose 10 µM,34.40 µM
same,CIntracellular Fraction,[7]; dose 25 µM,0.0629 µM
same,CHepatocyte,[7]; dose 25 µM,149.2 µM
same,CIntracellular Fraction,[7]; dose 40 µM,0.0937 µM
same,CHepatocyte,[7]; dose 40 µM,227.9 µM
same,Ki,[8],31.6 µM
same,Coefficient for ETC inhibition (DILIsym parameter) used in previously published research,[9],1.09 mM
same,"Simulated ALT >3X ULN, frequency",[10],7.86%
same,"Simulated ALT >3X ULN, frequency",[10]; listed as tolvaptan,7.86%
same,Simulated ALT >3X ULN,[10]; 90/30 mg,18/229
same,Simulated Hy's Law Cases,[10]; 90/30 mg,Yes
same,Clinical Hy's Law Cases,[11]; ADPKD,Yes
same,"Clinical ALT >3X ULN, frequency",[11]; treated ADPKD patients,4.4% and 5.6%
